Series [1] can be described thus: Body weight gain-inhibiting effect in normal SD rats. Format: in vivo. Conditions: Rattus norvegicus, po, 100 mg/kg orally every day for 5 days or 2 weeks, vs control group, read-out: Rate of inhibition of body weight gain (%). How it is done: (§1) 8-week-old SD rats (Japan Charles River: average body weight of about 350 g) were used. 5% aqueous gum arabic suspension, which was prepared such that the dosage of a compound of the present invention was 100 mg/kg body weight, was orally administered to the experimental group in an amount of 5 ml/kg body weight. 5% aqueous gum arabic suspension (not containing any compounds of the present invention) was orally administered to the control group in an amount of 5 ml/kg body weight. The rats were grouped according to their body weight at 8 weeks of age such that each group had 5 rats. The test compounds were orally administered every day at a fixed time for 5 days or 2 weeks, starting when the rats were 9 weeks old. Body weight was regularly measured during the period of oral administration, and the body weight gain-inhibiting effect was observed. 4 hours after the final administration of the test compound, blood was collected from the vein, plasma was separated from the collected blood, and blood biochemical examinations (triglyceride, HDL-cholesterol) were carried out.
The rate of inhibition of body weight gain (%) was calculated from the measured body weights of rats in the control group and the experimental group, according to the following formula. […] Rate of inhibition of body weight gain (%)=[(mean value of the control group)−(mean value of the experimental group)]/(mean value of the control group)×100

Series [2] deals with T1, LPL (lipoprotein lipase) (Homo sapiens, UniProt P06858).
T1 construct: endogenous in cells; host or cells: human skeletal muscle myoblasts, differentiated
T1 sequence (P06858 28-475): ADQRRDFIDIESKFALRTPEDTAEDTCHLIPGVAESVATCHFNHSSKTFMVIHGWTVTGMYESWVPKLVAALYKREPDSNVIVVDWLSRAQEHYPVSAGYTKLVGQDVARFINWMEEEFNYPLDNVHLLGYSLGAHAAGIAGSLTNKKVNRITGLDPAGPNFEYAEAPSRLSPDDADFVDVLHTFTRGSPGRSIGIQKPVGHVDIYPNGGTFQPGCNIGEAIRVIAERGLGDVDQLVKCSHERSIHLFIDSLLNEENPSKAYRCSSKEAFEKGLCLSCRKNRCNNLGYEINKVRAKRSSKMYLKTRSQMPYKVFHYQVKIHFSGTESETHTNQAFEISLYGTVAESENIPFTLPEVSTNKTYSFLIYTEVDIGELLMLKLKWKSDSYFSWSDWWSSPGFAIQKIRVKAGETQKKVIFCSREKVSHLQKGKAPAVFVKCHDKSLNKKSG
In words: Confirmation test of LPL activation effect in human skeletal muscle cells. The format is cell-based. The note with it: 8 hours exposure, vs control group. How it is done: Human skeletal muscle cells (human skeletal muscle myoblasts) or mouse skeletal muscle cells (C2C12 cells) that were seeded onto plates, cultured, and differentiated were exposed to a 0.3% dimethyl sulfoxide-containing culture medium in which the compound of the present invention was dissolved (concentration: 10 μM or 30 μM). The medium was removed 8 hours after exposure, 10 mM of Tris-HCl buffer (150 mM NaCl, 10 μ/mL; containing heparin sodium) was added to the cells, and the cells were incubated at 37° C. in the presence of 5% CO2 for 10 minutes. LPL activity in the supernatant was measured using an LPL activity assay kit (made by Roar Biomedical Inc.). LPL activity was evaluated based on the increase in fluorescence intensity 10 to 70 minutes after mixing the supernatant with the LPL substrate. The mean value of the increase in fluorescence intensity of the cells exposed to a 0.3% dimethyl sulfoxide-containing culture medium […] was used as mean value of the control group. Note that the compounds of Examples 18, 19, 32, 45 and 57 were tested using human skeletal muscle cells, and other compounds were tested using mouse skeletal muscle cells. The rate of increase (%) was calculated from the measured values of LPL activity in the control group and the experimental group, according to the following formula. Rate of increase in LPL activity (%)=[(mean value of the experimental group)−(mean value of the control group)]/(mean value of the control group)×100

Series [3] can be described thus: Lipid-improving action in SD rats: blood biochemical examinations (triglyceride, HDL-cholesterol). The format is in vivo. Conditions: Rattus norvegicus, po, 100 mg/kg orally every day for 5 days or 2 weeks, plasma 4 hours after final administration, vs control group, read-out: Rate of increase in HDL-cholesterol levels (%). How it is done: as §1
Blood biochemical examinations of rats in the control group and the experimental group were performed. The rates of change (%) were calculated according to the following formulae from the measured values obtained from the blood biochemical examinations. […] Rate of decrease in triglyceride levels (%)=[(mean value of the control group)−(mean value of the experimental group)]/(mean value of the control group)×100 Rate of increase in HDL-cholesterol levels (%)=[(mean value of the experimental group)−(mean value of the control group)]/(mean value of the control group)×100

Series [4] concerns the target T2, LPL (lipoprotein lipase) (Mus musculus, UniProt P11152).
T2 construct: endogenous in cells; host or cells: C2C12 cells, differentiated
T2 sequence (P11152 28-474): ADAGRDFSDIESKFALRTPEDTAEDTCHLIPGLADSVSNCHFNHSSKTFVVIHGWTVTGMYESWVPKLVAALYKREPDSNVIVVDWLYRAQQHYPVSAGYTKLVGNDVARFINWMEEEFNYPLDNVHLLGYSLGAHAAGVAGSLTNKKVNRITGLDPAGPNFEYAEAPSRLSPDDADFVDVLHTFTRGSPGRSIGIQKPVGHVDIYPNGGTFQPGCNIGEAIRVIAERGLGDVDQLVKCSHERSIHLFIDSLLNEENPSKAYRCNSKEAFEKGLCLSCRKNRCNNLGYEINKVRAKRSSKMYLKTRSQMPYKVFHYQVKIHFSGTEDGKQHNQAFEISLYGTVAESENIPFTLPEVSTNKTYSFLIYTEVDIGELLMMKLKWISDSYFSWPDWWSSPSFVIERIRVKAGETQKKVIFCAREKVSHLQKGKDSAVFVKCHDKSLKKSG
Description: Confirmation test of LPL activation effect in mouse skeletal muscle cells (C2C12 cells). The format is cell-based. The note with it: 8 hours exposure, vs control group. The gist of the method:
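Differentiated human skeletal muscle myoblasts or mouse C2C12 cells were exposed to compound at 10 μM or 30 μM in 0.3% DMSO medium for 8 h, then LPL was released with heparin-containing Tris-HCl buffer (10 min, 37° C). Supernatant LPL activity was taken as the fluorescence increase 10–70 min after adding substrate; % increase is calculated versus the DMSO control mean.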

Series [5] in a line: Confirmation test of anti-obesity action in dietary-obese mice. The format is in vivo. The note with it: AKR/J mice on high-fat diet (60% kcal fat), 20 mg/kg orally every day for 4 weeks, vs control group. Here is the method:
AKR/J mice were used. These mice were fed a high-fat diet with 60% kcal fat, and a model of dietary obesity was developed. 5% aqueous gum arabic suspension, which was prepared such that the dosage of a compound of the present invention was 20 mg/kg body weight, was orally administered to the experimental group of obese mice in an amount of 5 ml/kg body weight. […] The mice were grouped according to body weight. The test suspension was administered everyday at a fixed time for 4 weeks. Body weight was measured during the period of oral administration, and the body weight gain-inhibiting effect was confirmed. The rate of body weight reduction (%) was calculated from the measured body weights of mice in the control group and the experimental group, according to the following formula. […] Rate of body weight reduction (%)=[(mean value of the control group)−(mean value of the experimental group)]/(mean value of the control group)×100

What is called melting point is the temperature, or range, at which the solid turns liquid. Turning to `COc1cc(OCc2ccc(Br)cc2F)ccc1-c1c[nH]c(-c2ccc(C(F)(F)F)cc2)n1` [Example 18], the melting point lay within 167 to 170 °C. The inhibition in vivo at 100 mg/kg in series [1] came to 13%. Further, at LPL (lipoprotein lipase) [2] (amount of addition 10 μM), the “Rate of increase in LPL activity” value is 23%. Further, the “Rate of increase in LPL activity” value on LPL (lipoprotein lipase) [2] (amount of addition 30 μM) is reported as 23%. Further, the change in vivo at 100 mg/kg in series [3] came to 171%.
Regarding `COc1cc(OCc2ccc(Cl)cc2)ccc1-c1c[nH]c(-c2ccc(C(F)(F)F)cc2)n1` [Example 19], the melting point fell in the range of 158 to 162 °C. Further, the inhibition in vivo at 100 mg/kg in series [1] was determined as 11%. At LPL (lipoprotein lipase) [2] (amount of addition 10 μM), the “Rate of increase in LPL activity” value was determined as 24%. Besides, the “Rate of increase in LPL activity” value on LPL (lipoprotein lipase) [2] (amount of addition 30 μM) came to 28%. Besides, in series [3], the change in vivo at 100 mg/kg came out at 99%.
Take `COc1cc(OCc2ccc(Br)cc2F)ccc1-c1c[nH]c(-c2cccs2)n1.Cl` [Example 23]: the melting point lay in the range of 249 to 253 °C. In addition, the “Rate of increase in LPL activity” value at LPL (lipoprotein lipase) [4] (amount of addition 10 μM) came out at 40%. For the same molecule, the “Rate of increase in LPL activity” value at LPL (lipoprotein lipase) [4] (amount of addition 30 μM) was 95%. The “Rate of body weight reduction (%)” value in series [5] came to 13%.
Turning to `COc1cc(-c2c[nH]c(-c3ccc(C(F)(F)F)cc3)n2)ccc1OCc1ccc(Cl)cc1` [Example 32], the melting point was 158 to 159 °C. The inhibition in vivo at 100 mg/kg in series [1] worked out at 8%. Moreover, the “Rate of increase in LPL activity” value at LPL (lipoprotein lipase) [2] (amount of addition 10 μM) was 22%. Further, the “Rate of increase in LPL activity” value at LPL (lipoprotein lipase) [2] (amount of addition 30 μM) is given as 57%. Also, the change in vivo at 100 mg/kg in series [3] turned out to be 16%. In series [5], the “Rate of body weight reduction (%)” value came out at 11%.
Take `COc1cc(OCc2ccc(C#N)cc2)ccc1-c1c[nH]c(-c2ccc(F)cc2)n1.Cl` [Example 45]: the melting point was in the range of 189 to 191 °C. Further, the inhibition in vivo at 100 mg/kg in series [1] came to 12%. In addition, at LPL (lipoprotein lipase) [2] (amount of addition 10 μM), the “Rate of increase in LPL activity” value is listed as 23%. Besides, the “Rate of increase in LPL activity” value on LPL (lipoprotein lipase) [2] (amount of addition 30 μM) is 32%. Further, the change in vivo at 100 mg/kg in series [3] stood at 27%. The “Rate of body weight reduction (%)” value in series [5] was 11%.
`COc1cc(OCc2ccc(Br)cc2F)ccc1-c1c[nH]c(-c2ccc(F)cc2)n1.Cl` [Example 57] registered a melting point of over 250 °C. In addition, in series [1], the inhibition in vivo at 100 mg/kg is 14%. Also, the “Rate of increase in LPL activity” value at LPL (lipoprotein lipase) [2] (amount of addition 10 μM) came to 19%. For the same molecule, the “Rate of increase in LPL activity” value on LPL (lipoprotein lipase) [2] (amount of addition 30 μM) is given as 40%. Besides, in series [3], the change in vivo at 100 mg/kg was 184%. Besides, in series [5], the “Rate of body weight reduction (%)” value is listed as 17%.

Values taken from patent publication US8329739B2, “Phenylimidazole compounds” (Otsuka Pharmaceutical Factory, Inc., priority 2009, dated 2012).
